Assay results taken from patent US9962453B2, “Immunogenic compound” (ALTIMMUNE UK LIMITED, priority 2013, dated 2018).
Counter-ions that a name gives are not always drawn. No end group written: not given here. PEG‑FIM = not defined here

How the values were obtained:
[1] = test system: T cell immune response to FP-02.2 vaccine peptides; type: in vivo, BALB/c mice; details: conclusions of Example 2
[2] = target: T1, human TLR7 (Homo sapiens, UniProt Q9NYK1); test: Human TLR7 HEK-Blue reporter gene assay (NF-kappaB activation, SEAP); type: cell-based; details: in comparison with R848
T1 construct: host or cells: HEK-Blue-hTLR7 (HEK293)
T1 sequence (Q9NYK1 27-1049): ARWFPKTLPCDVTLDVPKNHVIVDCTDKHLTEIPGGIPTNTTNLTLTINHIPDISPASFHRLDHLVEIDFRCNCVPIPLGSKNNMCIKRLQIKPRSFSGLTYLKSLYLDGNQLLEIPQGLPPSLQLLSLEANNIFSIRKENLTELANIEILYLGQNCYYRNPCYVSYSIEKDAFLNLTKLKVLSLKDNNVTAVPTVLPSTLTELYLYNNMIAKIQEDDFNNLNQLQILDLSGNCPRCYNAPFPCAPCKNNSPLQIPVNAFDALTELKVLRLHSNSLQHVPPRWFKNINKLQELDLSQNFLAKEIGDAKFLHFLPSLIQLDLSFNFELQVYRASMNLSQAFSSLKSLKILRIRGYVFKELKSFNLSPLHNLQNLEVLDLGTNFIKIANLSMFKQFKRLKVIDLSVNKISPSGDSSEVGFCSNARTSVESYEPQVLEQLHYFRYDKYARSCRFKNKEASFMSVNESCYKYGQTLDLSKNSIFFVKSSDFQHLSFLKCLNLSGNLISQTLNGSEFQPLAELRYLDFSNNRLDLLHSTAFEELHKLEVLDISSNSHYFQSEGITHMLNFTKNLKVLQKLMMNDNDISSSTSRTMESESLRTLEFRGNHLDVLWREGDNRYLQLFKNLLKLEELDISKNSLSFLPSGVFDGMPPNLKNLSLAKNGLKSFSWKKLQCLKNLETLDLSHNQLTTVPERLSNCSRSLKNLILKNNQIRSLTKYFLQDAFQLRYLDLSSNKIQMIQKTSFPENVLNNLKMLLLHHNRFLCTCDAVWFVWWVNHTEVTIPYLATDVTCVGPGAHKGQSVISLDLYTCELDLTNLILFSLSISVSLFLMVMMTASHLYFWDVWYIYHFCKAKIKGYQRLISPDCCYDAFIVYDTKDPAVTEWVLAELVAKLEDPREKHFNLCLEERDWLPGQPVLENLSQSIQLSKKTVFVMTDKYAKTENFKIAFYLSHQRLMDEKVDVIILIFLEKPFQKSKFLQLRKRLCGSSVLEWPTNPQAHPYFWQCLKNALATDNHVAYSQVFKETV
Protocol: (§1) The activity of different TLR-7 or TLR-8 agonist were tested using human TLR-specific HEK-Blue™ reporter gene assays (Invivogen, France). HEK-Blue™-hTLR7 cells and HEK-Blue™-hTLR8 cells were obtained by co-transfection of the human TLR7 gene or human TLR8 genes and an inducible SEAP (secreted embryonic alkaline phosphatase) reporter gene into HEK293 cells. The SEAP gene is placed under the control of the IFN-β minimal promoter fused to five NF-kappaB and AP-1-binding sites. Stimulation with a TLR ligand activates NF-kappaB and AP-1 which induce the production of SEAP. Cells were maintained in HEK-Blue™ selection medium containing Blasticidin, Zeocin and Normocin. HEK-Blue™ cells were incubated at a density of 10^5 cells/mL in a volume of 200 ul in 96 well plates. In the presence of the HEK-Blue™ detection media, the secretion of SEAP (proportional to the to the NF-kappaB induction) was quantified at […].

[3] = target: T2, human TLR8 (Homo sapiens, UniProt Q9NR97); test: Human TLR8 HEK-Blue reporter gene assay (NF-kappaB activation, SEAP); type: cell-based; details: in comparison with R848
T2 construct: host or cells: HEK-Blue-hTLR8 (HEK293)
T2 sequence (Q9NR97 27-1041): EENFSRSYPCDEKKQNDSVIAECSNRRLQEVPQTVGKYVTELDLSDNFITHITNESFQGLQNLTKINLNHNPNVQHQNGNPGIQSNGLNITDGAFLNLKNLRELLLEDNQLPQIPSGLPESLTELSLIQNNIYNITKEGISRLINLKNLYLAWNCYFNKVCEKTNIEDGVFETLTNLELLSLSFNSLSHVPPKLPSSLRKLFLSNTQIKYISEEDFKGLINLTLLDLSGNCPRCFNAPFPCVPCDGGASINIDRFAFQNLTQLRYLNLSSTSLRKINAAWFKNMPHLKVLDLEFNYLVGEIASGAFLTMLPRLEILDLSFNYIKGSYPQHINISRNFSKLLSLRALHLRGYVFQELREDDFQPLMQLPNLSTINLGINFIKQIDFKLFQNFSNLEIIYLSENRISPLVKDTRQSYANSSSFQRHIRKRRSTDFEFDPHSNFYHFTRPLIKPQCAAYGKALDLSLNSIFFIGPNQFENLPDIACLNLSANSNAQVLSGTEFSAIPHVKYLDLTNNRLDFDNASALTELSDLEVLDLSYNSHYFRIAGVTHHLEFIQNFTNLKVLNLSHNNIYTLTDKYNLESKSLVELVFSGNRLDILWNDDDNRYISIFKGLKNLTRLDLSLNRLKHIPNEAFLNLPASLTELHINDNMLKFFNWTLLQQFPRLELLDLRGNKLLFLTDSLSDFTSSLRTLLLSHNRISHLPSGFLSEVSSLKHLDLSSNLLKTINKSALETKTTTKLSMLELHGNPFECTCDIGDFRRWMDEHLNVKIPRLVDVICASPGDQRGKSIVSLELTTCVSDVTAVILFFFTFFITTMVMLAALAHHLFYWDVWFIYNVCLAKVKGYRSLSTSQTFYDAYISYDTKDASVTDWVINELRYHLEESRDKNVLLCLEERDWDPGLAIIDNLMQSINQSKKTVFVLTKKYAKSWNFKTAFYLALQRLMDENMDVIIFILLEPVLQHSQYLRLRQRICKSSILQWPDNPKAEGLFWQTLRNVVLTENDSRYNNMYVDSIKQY
Protocol: as §1

Row | Molecule | adjuvanticity, conjugates versus free R848 [1] | NF-kappaB activation in HEK-293 cells expressing TLR-7 [2] | NF-kappaB activation in HEK-293 cells expressing TLR-8 [3]
1 | CCOCc1nc2c(N)nc3ccccc3c2n1CC(C)(C)O [Peptide R848, [4-Amino-2-(ethoxymethyl)-1H-imidazo[4,5-c]quinolin-1-yl]-2-methyl-2-propanol, HCl, reference compound] | little to no-adjuvanticity | highly active | highly active
2 | RLK(PEG-FIM)-NH2 (Arg-Leu-Lys(PEG‑FIM)-NH2; reading uncertain; also: printed as RLK(PEG-FIM)-NH2) [RLK-PEG-FIM-01] |  | also active in the TLR-7 and TLR-8 cell line but to a much lesser extent compared to R848 | also active in the TLR-7 and TLR-8 cell line but to a much lesser extent compared to R848
